Assay results reported in US9636327B2 (University Health Network, Toronto General Hospital, priority 2013, dated 2017).

What was measured:
[1] = more water-soluble than dantrolene; cited from earlier work
isolated rabbit hearts = experiment: Ex-vivo rabbit model: Langendorff-perfused isolated hearts, VF induction and optical mapping of calcium alternans; set-up: species or system New-Zealand white rabbits
Protocol: New-Zealand white rabbits with weight ranging from 2.4-4.5 Kg were used. (n=14). All animals were anesthetized with sodium pentobarbital (35 mg/kg), aorta was attached to the Langendorff apparatus and retrogradely perfused with 37.5° C. oxygenated Tyrode solution with albumin 80 mg/L in deionized water equilibrated with 95% 02 and 5% CO2. Simultaneous optical mapping of epicardial surface of isolated hearts for Calcium and Voltage was performed using 0.5 mg Rhod2-AM and 10 microM/1 RH237. Blebbistatin at 10 microM/L was added to Tyrode solution to block cardiac contractions.
VF was induced by burst pacing for 30 sec at 60 Hz and 10V and hearts were continuously perfused during VF. […] VF was monitored for 4 min and then defibrillated at 5 J. Five minutes after termination of first VF episode, 4 more episodes of fibrillation-defibrillation were tried on each heart with 5 min recovery time (in sinus rhythm) in between. VF duration for each VF episode was 4 min (or shorter in case of self-termination) followed by defibrillation. […] Additionally, hearts were paced at various rates of 250, 220, 200, 180 and 160 msec Cycle Length (CL) for 30 seconds after first and second VF episodes. Simultaneous optical mapping of Calcium and voltage was performed during pacing to evaluate for Calcium Alternans. Calcium alternans was defined as beat-to-beat difference of more than 10% in Calcium wave amplitude. At the end of the experiment, LV tissue from the LV free wall was removed and frozen in liquid Nitrogen for further western blot analysis.
P<0.05 was considered statistically significant.

Yorkshire pigs = experiment: In-vivo swine model of VF cardiac arrest with CPR and defibrillation;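 further: VF induced by burst pacing in anesthetized pigs, left untreated 4 min, then 3 min CPR and defibrillation, with ECG and aortic pressure monitored for 30 min afterwards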
From the text: Previously healthy 10-12 weeks-old Yorkshire pigs (n=24) were used. […] Following endotracheal intubation anesthesia was maintained by continuous administration of Isoflurane (2% mixed with 100% O2) and ventilated (Ohio ventilator R.A.E. Technologies, Inc. Ontario) at 21 breaths/min and was continuously measured using CO2MO Plus monitoring system (Novametrix Medical Systems). Animals were continuously monitored using Lifepak 12 Medtronic-PhysioControl defibrillator for ECG monitoring. Two self-adhesive defibrillation pads were attached to the lateral aspects of the chest wall for defibrillation. (Medtronics Inc, Redmond, Wash.)
Femoral arteries and veins were catheterized and an EP catheter (EP Technologies Inc, Sunnyvale, Calif.) was placed in the right ventricle to enable pacing and to induce VF. Two micro manometer-tipped Millar catheters (Millar Instruments, Inc, Houston, Tex.) were placed in Abdominal Aorta and right atrium. Pacing catheter was further attached to a custom designed signal acquisition and processing system. (Electrophysiological Recording system-Acqui2, Toronto, ON) The pressure and ECG signals were recorded at 1000 Hz with a 0.05 Hz high pass and 500 Hz low pass filter by custom software. (Acqui2, Cartesian Labs)
After initial monitoring and stabilization, VF was induced by burst pacing (10V of 60 Hz current for 2 seconds) and left untreated for 4 minutes. Then, chest compression was started using a pneumatic device (Lucas, Jolife AB, Lund, Sweden) at 100 compressions/min and manual ventilation at 6 breath/min using 5-6 liters/min of 100% O2 with an AMBU bag was performed. CPR was continued for 3 minutes with no interruption of chest compressions. […] After successful defibrillation, animals were monitored for 30 min to assess the outcome and occurrence of Refibrillations. At the end, survivors were sacrificed by inducing VF. If animals could not be defibrillated during refibrillation, the energy level was increased in a stepwise fashion to up to 4 attempts at 360 J.
Refibrillation was defined as recurrence of VF after at least 5 beats of a non-VF rhythm following defibrillation. Survival was determined based on presence of sBP≧30 mmHg in abdominal aorta and normal sinus rhythm at the end of 30 min observation period. Time to Return of Spontaneous Circulation (ROSC) was calculated from the onset of CPR until sBP≧60 mmHg was attained in abdominal aorta after successful defibrillation. Sustained ROSC was defined as maintenance of sBP≧60 mmHg by the end of 30-min observation post-defibrillation. Ventricular ERP was measured at baseline and at 20 minutes into recovery (if any) via the S1-S2 stimulation method. Surface ECG signals at 4 min of VF and at 7 min of VF were extracted to analyze for VF organization. A Spatio-temporal index of VF organization (Regularity Index (RI)) was used. RI was defined as the ratio of the power at the Dominant Frequency (DF) to the total power. […] The total power was calculated as the sums over the range of 5-15 Hz. Values vary between 0 (disorganized) to 1 (highly organized).
Mean time to ROSC, mean time to successful defibrillation, onset of refibrillation and regularity index of VF at different time points were analyzed using unpaired student t-test. Repeated-measures ANOVA was used to compare continuous variables between groups at different time points. Protein phosphorylation analysis and comparison of ordinal variables (number of refibrillations) were performed using Wilcoxon Mann-Whitney test. […] P<0.05 was considered statistically significant. All statistical analysis were performed using Stata 11.1 (Stata Corp LP)

[2] = 2 mg/kg bolus, defibrillation energy
[3] = 2 mg/kg bolus, post-defibrillation

SMILES: O=C1CN(/N=C/c2ncc(-c3ccc(Br)cc3)o2)C(=O)N1 [Azumolene]
- water solubility relative to dantrolene [1]: 30 times

SMILES: O=C1CN(N=Cc2ccc(-c3ccc([N+](=O)[O-])cc3)o2)C(=O)N1.[Na] [Dantrolene, 1-[[[5-(4-nitrophenyl)-2-furanyl]methylene]amino]-2,4-imidazolidinedione sodium salt]
- Incidence of CaA-ALT after second VF (isolated rabbit hearts; Dantrolene 10-20 μM/l): approximately 12.5%
- mean duration of all VF episodes combined (isolated rabbit hearts; Dantrolene 10-20 μM/l): about 194±234 sec
- successful attempts to induce VF (VF lasting ≧10 sec) (isolated rabbit hearts; Dantrolene 10-20 μM/l infused at 1 min of first VF, 12 of 31 attempts): 38.7%
- VF episodes sustained >60 sec (isolated rabbit hearts; Dantrolene 10-20 μM/l, 7 of 31 attempts): 22.58%
- alternans threshold (isolated rabbit hearts; Dantrolene 10-20 μM/l, pacing cycle length): about 186±11 msec CL
- Number of Refibrillations (Yorkshire pigs; 2 mg/kg bolus): 0.6 ± 0.4
- Number of shocks to terminate refibrillations (Yorkshire pigs; 2 mg/kg bolus): 1 ± 0
- Sinus rhythm immediately post-defibrillation (Yorkshire pigs; 2 mg/kg bolus): approximately 90.91%
- Survival after Refibrillation (Yorkshire pigs; 2 mg/kg bolus): 100% (3)
- Time to ROSC calculated from immediately post-defibrillation (Yorkshire pigs; 2 mg/kg bolus): about 13±4 sec
- Time to onset of Refibrillation (Yorkshire pigs; 2 mg/kg bolus): 51 ± 9 s
- animals requiring energy levels ≦200J for defibrillating the initial VF (Yorkshire pigs; 2 mg/kg bolus): Ninety
- sBP peak at 5 min post-defibrillation (Yorkshire pigs; 2 mg/kg bolus): approximately 98±17 mmHg
- Final Rhythm PEA (Yorkshire pigs; 2 mg/kg bolus at onset of CPR): 0%
- Final Rhythm Sinus (Yorkshire pigs; 2 mg/kg bolus at onset of CPR): 90.91%
- Final Rhythm VF (or VrF) (Yorkshire pigs; 2 mg/kg bolus at onset of CPR): 9.09%
- ROSC (at 5 min post-defibrillation) (Yorkshire pigs; 2 mg/kg bolus at onset of CPR): 90.91%
- post-defibrillation VERP (Yorkshire pigs; 2 mg/kg bolus, 20 minutes into recovery): about 215±9 msec
- Refibrillation Incidence (Yorkshire pigs; 2 mg/kg bolus, 30 min monitoring after defibrillation): 36.36%
- Maximum energy level (Yorkshire pigs; [2]): 187 ± 62 J
- Total energy level (Yorkshire pigs; [2]): 366 ± 139
- Total time in VF Including VrF (refibrillation) (Yorkshire pigs; 2 mg/kg bolus, initial VF plus all refibrillations): 478 ± 19 s
- Total time in VF Excluding VrF (Yorkshire pigs; 2 mg/kg bolus, initial VF without refibrillations): 466 ± 18 s
- QT interval post-defibrillation (Yorkshire pigs; [3]): about 334±83 msec
- Tp-Tn (repolarization dispersion) post-defibrillation (Yorkshire pigs; [3]): about 84±22 msec
- Number of shocks (>2 attempts) (Yorkshire pigs; 2 mg/kg bolus, share of animals needing >2 attempts): 9.09%
- Refibrillation duration (Yorkshire pigs; 2 mg/kg bolus, sodium salt, 2 mg/kg): 32 ± 6 s
- mean dBP at the end of experiment (Yorkshire pigs; 2 mg/kg bolus, survivors): about 61±10 mmHg
- mean sBP at the end of experiment (Yorkshire pigs; 2 mg/kg bolus, survivors): about 84±11 mmHg
- Successful defibrillation (Yorkshire pigs; Dantrolene Sodium 2 mg/kg bolus at onset of CPR after 4 min untreated VF): 100%
- QT interval at baseline (Yorkshire pigs; Dantrolene group, baseline): about 432±48 msec
- Tp-Tn (repolarization dispersion) at baseline (Yorkshire pigs; Dantrolene group, baseline): about 68±23 msec
